Data as given in patent US12285407B2, “Bis-indolylmethane derivatives and uses thereof” (The University of The West Indies, priority 2018, dated 2025).
Converted amounts (≈) assume the structure as drawn. Like-named read-outs stand apart in the source and are kept apart here.

Experiments:
[1] = tested on: Escherichia coli O157:H7; experiment: Rescue concentrations of SP-BIM that reactivate antibiotic; type: cell-based; conditions: Escherichia coli
[2] = tested on: MRSA; experiment: Adjuvant broth microdilution (antibiotic MIC with SP-BIM at 50 μg/mL); type: cell-based, Staphylococcus aureus; conditions: Staphylococcus aureus, antibiotic alone, Table 4, read-out: MIC of antibiotic, No compound
[3] = tested on: Escherichia coli; experiment: Checkerboard synergy (FICI) of antibiotics with SP-BIM; design: MIC SP-BIM 13 only / MIC in combination: Antibiotic: unit not given beside the values; conditions: for MIC: 24 h
[4] = tested on: Streptococcus pneumoniae; experiment: as above; type: cell-based; conditions: for MIC: 24 h, antibiotic alone, read-out: MIC antibiotic only
[5] = tested on: Enterococcus faecium; experiment: as above; type: cell-based; conditions: Enterococcus faecium, Enterococcus faecium; for MIC: 24 h, antibiotic alone, read-out: MIC antibiotic only
[6] = tested on: Escherichia coli; experiment: microbe, parasite or virus in culture; type: cell-based; conditions: read-out: MIC of antibiotic, No compound
[7] = tested on: Bacillus cereus; experiment: Checkerboard synergy (FICI) of antibiotics with SP-BIM; type: cell-based; conditions: for MIC: 24 h, antibiotic alone, read-out: MIC antibiotic only
[8] = tested on: Klebsiella pneumoniae; experiment: Adjuvant broth microdilution (antibiotic MIC with SP-BIM at 50 μg/mL); type: cell-based; conditions: Klebsiella pneumoniae; antibiotic alone; Table 7; read-out: MIC of antibiotic, No compound
[9] = tested on: Candida albicans; experiment: Checkerboard synergy (FICI) of antibiotics with SP-BIM; design: MIC SP-BIM 13 only / MIC in combination: Antibiotic / MIC antibiotic only: unit not given beside the values
[10] = tested on: Klebsiella pneumoniae; experiment: as above; type: cell-based; conditions: for MIC: 24 h, antibiotic alone, read-out: MIC antibiotic only
[11] = tested on: Staphylococcus aureus; experiment: as above; type: cell-based; conditions: Staphylococcus aureus, Staphylococcus aureus; for MIC: 24 h, antibiotic alone, read-out: MIC antibiotic only
[12] = MIC of the antibiotic in combination with SP-BIM 13
[13] = SP-BIM 9 in combination with the labelled antibiotic
[14] = SP-BIM 13 in combination with the labelled antibiotic
[15] = antibiotic in combination with SP-BIM 9
[16] = Streptococcus pneumonia (title: Streptococcus pyogenes), antibiotic + SP-BIM 9
[17] = Streptococcus pneumoniae, antibiotic + SP-BIM 13
[18] = antibiotic in combination with SP-BIM 13

Oc1ccc2[nH]cc(C(c3cc(O)c(O)c(O)c3)c3c[nH]c4ccc(O)cc34)c2c1 [SP-BIM 27, 5-(bis(5-hydroxy-1H-indol-3-yl)methyl)benzene-1,2,3-triol]
MIC ([1]; read-out: MIC of SP-BIM 27): > 250 µg/mL

Oc1ccc2[nH]cc(C(c3cccc(Br)c3)c3c[nH]c4ccc(O)cc34)c2c1 [SP-BIM 28, 3,3′-((3-bromophenyl)methylene)bis(1H-indol-5-ol)]
MIC ([1]; read-out: MIC SP-BIM 28): 250 µg/mL (≈ 577 µM)

COc1cc(Cc2cnc(N)nc2N)cc(OC)c1OC [Trimethoprim, trimethoprim]
MIC [2]: 250 µg/mL
MIC ([3]; read-out: MIC antibiotic only, Escherichia coli, antibiotic alone): 2 µg/mL
MIC ([3]; read-out: MIC antibiotic only, Escherichia coli, antibiotic alone, SP-BIM 9 checkerboard): 2 µg/mL
MIC in combination: Antibiotic [3, 12]: 8
FIC of SP-BIM 9 [3, 13]: 0.128
FIC of SP-BIM 13 [3, 14]: 1.0
Interpretation ([3]; antibiotic + SP-BIM 9): Antagonistic (Antagonistic: FICI≥4.0)
Σ FIC ([3]; antibiotic + SP-BIM 9): <4.1
Interpretation ([3]; antibiotic + SP-BIM 13): Antagonistic (Antagonistic: FICI≥4.0)
Σ FIC ([3]; antibiotic + SP-BIM 13): <5.0
MIC in combination, Antibiotic [3, 15]: 8 µg/mL
FIC of antibiotic ([3]; combination with SP-BIM 13): 4.0
FIC of antibiotic ([3]; in combination with SP-BIM 9): 4
FIC of SP-BIM 9 ([4]; Streptococcus pneumonia (title: Streptococcus pyogenes), SP-BIM 9 in combination with the labelled antibiotic): 0.06
Interpretation [4, 16]: Synergy (Synergy: FICI≤0.5)
Σ FIC [4, 16]: <0.31
MIC in combination, Antibiotic ([4]; Streptococcus pneumonia (title: Streptococcus pyogenes), antibiotic in combination with SP-BIM 9): 8 µg/mL
FIC of antibiotic ([4]; Streptococcus pneumonia (title: Streptococcus pyogenes), in combination with SP-BIM 9): 0.25
MIC ([4]; Streptococcus pneumoniae, Streptococcus pneumonia (title: Streptococcus pyogenes), SP-BIM 9 checkerboard): 32 µg/mL
MIC ([4]; Streptococcus pneumoniae, Streptococcus pneumoniae, SP-BIM 13 checkerboard): 32 µg/mL
FIC of SP-BIM 13 ([4]; Streptococcus pneumoniae, SP-BIM 13 in combination with the labelled antibiotic): 1.0
Interpretation [4, 17]: Antagonistic (Antagonistic: FICI≥4.0)
Σ FIC [4, 17]: <4.9
MIC in combination, Antibiotic ([4]; Streptococcus pneumoniae, antibiotic in combination with SP-BIM 13): 125 µg/mL
FIC of antibiotic ([4]; Streptococcus pneumoniae, in combination with SP-BIM 13): 3.9
MIC ([5]; SP-BIM 9 checkerboard): 4 µg/mL
MIC ([5]; SP-BIM 13 checkerboard): 4 µg/mL
FIC of SP-BIM 13 [5, 14]: 1.0
Interpretation ([5]; antibiotic + SP-BIM 13): Antagonistic (Antagonistic: FICI≥4.0)
Σ FIC ([5]; antibiotic + SP-BIM 13): 5.0
MIC in combination, Antibiotic [5, 18]: 16 µg/mL
FIC of antibiotic ([5]; in combination with SP-BIM 13): 4.0
MIC [6]: 2 µg/mL
MIC ([7]; SP-BIM 9 checkerboard): > 250 µg/mL
MIC ([7]; SP-BIM 13 checkerboard): 250 µg/mL
MIC in combination, SP-BIM 9 ([7]; SP-BIM 9 concentration in combination with the labelled antibiotic): 16 µg/mL
FIC of SP-BIM 9 [7, 13]: 0.064
FIC of SP-BIM 13 [7, 14]: 1.0
Interpretation ([7]; antibiotic + SP-BIM 9): Synergy (Synergy: FICI≤0.5)
Σ FIC ([7]; antibiotic + SP-BIM 9): <0.1
Interpretation ([7]; antibiotic + SP-BIM 13): Indifferent (Indifferent: FICI>1.0-4.0)
Σ FIC ([7]; antibiotic + SP-BIM 13): 2.0
MIC in combination, Antibiotic [7, 15]: 2 µg/mL
MIC in combination, Antibiotic [7, 18]: 250 µg/mL
FIC of antibiotic ([7]; in combination with SP-BIM 9): 0.008
FIC of antibiotic ([7]; in combination with SP-BIM 13): 1.00
MIC [8]: 16 µg/mL
MIC ([9]; 24 h, read-out: MIC antibiotic only): > 250 µg/mL
MIC in combination: Antibiotic [9, 12]: 250
FIC of SP-BIM 13 [9, 14]: 1.0
Interpretation ([9]; antibiotic + SP-BIM 13): Indifferent (Indifferent: FICI>1.0-4.0)
Σ FIC ([9]; antibiotic + SP-BIM 13): <2.0
FIC of antibiotic ([9]; combination with SP-BIM 13): 1.0
MIC ([10]; SP-BIM 9 checkerboard): 8 µg/mL
MIC ([10]; SP-BIM 13 checkerboard): 8 µg/mL
FIC of SP-BIM 9 [10, 13]: 0.5
FIC of SP-BIM 13 [10, 14]: 1.0
Interpretation ([10]; antibiotic + SP-BIM 9): Indifferent (Indifferent: FICI>1.0-4.0)
Σ FIC ([10]; antibiotic + SP-BIM 9): <1.5
Interpretation ([10]; antibiotic + SP-BIM 13): Indifferent (Indifferent: FICI>1.0-4.0)
Σ FIC ([10]; antibiotic + SP-BIM 13): <3.0
MIC in combination, Antibiotic [10, 15]: 8 µg/mL
MIC in combination, Antibiotic [10, 18]: 16 µg/mL
FIC of antibiotic ([10]; in combination with SP-BIM 9): 1
FIC of antibiotic ([10]; in combination with SP-BIM 13): 2.0
MIC ([11]; SP-BIM 9 checkerboard): 1 µg/mL
MIC ([11]; SP-BIM 13 checkerboard): 1 µg/mL
FIC of SP-BIM 9 [11, 13]: 0.02
FIC of SP-BIM 13 [11, 14]: 0.5
Interpretation ([11]; antibiotic + SP-BIM 9): Indifferent (Indifferent: FICI>1.0-4.0)
Σ FIC ([11]; antibiotic + SP-BIM 9): <2.02
Interpretation ([11]; antibiotic + SP-BIM 13): Antagonistic (Antagonistic: FICI≥4.0)
Σ FIC ([11]; antibiotic + SP-BIM 13): 4.5
MIC in combination, Antibiotic [11, 15]: 2.0 µg/mL
MIC in combination, Antibiotic [11, 18]: 4 µg/mL
FIC of antibiotic ([11]; in combination with SP-BIM 9): 2.00
FIC of antibiotic ([11]; in combination with SP-BIM 13): 4.0
